Our source for the IC50 values is patent US20110105509A1 (Wyeth, LLC, priority 2009, published 2011).

Each structure is given as a SMILES string.

In this test the target is T1, CRTH2 (Homo sapiens, UniProt Q9Y5Y4).
T1 construct: expressed in transfected cells; host or cells: CHO cells
T1 sequence (Q9Y5Y4 1-395): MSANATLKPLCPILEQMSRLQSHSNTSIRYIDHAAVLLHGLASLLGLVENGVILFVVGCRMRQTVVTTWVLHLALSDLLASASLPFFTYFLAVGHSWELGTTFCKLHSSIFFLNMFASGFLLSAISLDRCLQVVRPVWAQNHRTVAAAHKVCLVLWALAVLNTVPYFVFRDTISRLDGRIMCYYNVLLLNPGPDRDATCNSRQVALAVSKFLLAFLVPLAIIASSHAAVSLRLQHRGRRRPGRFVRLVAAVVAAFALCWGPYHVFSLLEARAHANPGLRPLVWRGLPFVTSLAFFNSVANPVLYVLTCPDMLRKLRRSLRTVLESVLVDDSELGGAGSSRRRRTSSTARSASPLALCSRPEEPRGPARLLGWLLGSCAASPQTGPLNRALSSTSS
The test can be described thus: FRET based competitive immunoassay (cAMP) in CRTH2 expressing CHO cells. In kind it is cell-based. To be noted: CRTH2 expressing CHO cells incubated with forskolin and PGD2; Eu3+ cryptate-labeled anti-cAMP and d2-labeled cAMP. As for the experimental part:
FRET Assay: To evaluate potency compounds were tested in a FRET based competitive immunoassay in which CRTH2 expressing CHO cells were incubated in the presence of forskolin and PGD2 along with Eu3+ cryptate-labeled anti-cAMP and d2-labeled cAMP.
For the compound `Cc1c(-c2ccc(=O)n(Cc3ccccc3)n2)c2cc(F)ccc2n1C(=O)c1cccnc1` [Example 262b, 2-benzyl-6-(5-fluoro-2-methyl-1-nicotinoyl-1H-indol-3-yl)pyridazin-3(2H)-one], the IC50 (in general, the concentration at which inhibition is half-maximal) is over 10000 nM.
To `Cc1c(-c2ccc(=O)n(Cc3ccccc3)n2)c2cc(F)ccc2n1Cc1ccccc1` [Example 262c, 6-(1-benzyl-5-fluoro-2-methyl-1H-indol-3-yl)-2-benzylpyridazin-3(2H)-one] belongs over 10000 nM; to `Cc1c(-c2ccc(=O)n(Cc3ccccc3)c2)c2ccccc2n1CC(=O)O` [Example 263, 2-(3-(1-benzyl-6-oxo-1,6-dihydropyridin-3-yl)-2-methyl-1H-indol-1-yl)acetic acid], 42 nM; to `Cc1c(-c2ccc(=O)n(Cc3ccccc3)c2)c2cc(Cl)ccc2n1CC(=O)O` [Example 264, 2-(3-(1-benzyl-6-oxo-1,6-dihydropyridin-3-yl)-5-chloro-2-methyl-1H-indol-1-yl)acetic acid], 10 nM.
As for `Cc1c(-c2ccc(=O)n(Cc3ccccc3)c2)c2cc(F)ccc2n1CC(=O)O` [Example 265, 2-(3-(1-benzyl-6-oxo-1,6-dihydropyridin-3-yl)-5-fluoro-2-methyl-1H-indol-1-yl)acetic acid], the IC50 turned out to be 5 nM.
In turn, `Cc1c(-c2ccc(=O)n(Cc3ccccc3F)c2)c2cc(F)ccc2n1CC(=O)O` [Example 266, 2-(5-fluoro-3-(1-(2-fluorobenzyl)-6-oxo-1,6-dihydropyridin-3-yl)-2-methyl-1H-indol-1-yl)acetic acid] showed a 50% inhibitory concentration (IC50) of 9 nM.
In turn, `Cc1c(-c2ccc(=O)n(Cc3ccc(F)cc3)c2)c2cc(F)ccc2n1CC(=O)O` [Example 267, 2-(5-fluoro-3-(1-(4-fluorobenzyl)-6-oxo-1,6-dihydropyridin-3-yl)-2-methyl-1H-indol-1-yl)acetic acid] returned an IC50 of 6 nM.
The value for `Cc1c(-c2ccc(=O)n(Cc3c(F)cccc3F)c2)c2cc(F)ccc2n1CC(=O)O` [Example 268, 2-(3-(1-(2,6-difluorobenzyl)-6-oxo-1,6-dihydropyridin-3-yl)-5-fluoro-2-methyl-1H-indol-1-yl)acetic acid] was 7 nM.
In turn, `Cc1c(-c2ccc(=O)n(Cc3cccc(F)c3F)c2)c2cc(F)ccc2n1CC(=O)O` [Example 269, 2-(3-(1-(2,3-difluorobenzyl)-6-oxo-1,6-dihydropyridin-3-yl)-5-fluoro-2-methyl-1H-indol-1-yl)acetic acid] had an IC50 of 1 nM.
`Cc1c(-c2nn(Cc3nnc[nH]3)c(=O)c3ccccc23)c2cc(F)ccc2n1CC(=O)O` [Example 270, 2-(3-(3-((4H-1,2,4-triazol-3-yl)methyl)-4-oxo-3,4-dihydrophthalazin-1-yl)-5-fluoro-2-methyl-1H-indol-1-yl)acetic acid] yielded a concentration for half-maximal inhibition (IC50) of over 5500 nM.
Take `Cc1c(-c2ccc(=O)n(Cc3cc(F)c(F)cc3F)c2)c2cc(F)ccc2n1CC(=O)O` [Example 271, 2-(5-Fluoro-2-methyl-3-(6-oxo-1-(2,4,5-trifluorobenzyl)-1,6-dihydropyridin-3-yl)-1H-indol-1-yl)acetic acid]: the IC50 was 12 nM.
The value for `Cc1c(-c2cn(CCC(C)(C)O)c(=O)c3ccccc23)c2cc(F)ccc2n1CC(=O)O` [Example 272, 2-(5-fluoro-3-(2-(3-hydroxy-3-methylbutyl)-1-oxo-1,2-dihydroisoquinolin-4-yl)-2-methyl-1H-indol-1-yl)acetic acid] was 23 nM.
Consider `Cc1c(-c2ccc(=O)n(Cc3ccc(F)cc3F)c2)c2cc(F)ccc2n1CC(=O)O` [Example 273, 2-(3-(1-(2,4-difluorobenzyl)-6-oxo-1,6-dihydropyridin-3-yl)-5-fluoro-2-methyl-1H-indol-1-yl)acetic acid], for which the IC50 turned out to be 28 nM.
The compound `Cc1c(-c2ccc(=O)n(Cc3ccc(F)cc3F)c2)c2cc(Cl)ccc2n1CC(=O)O` [Example 274, 2-(5-chloro-3-(1-(2,4-difluorobenzyl)-6-oxo-1,6-dihydropyridin-3-yl)-2-methyl-1H-indol-1-yl)acetic acid] gave an IC50 of 3 nM.
The value for `Cc1c(-c2ccc(=O)n(Cc3ccc(F)cc3F)c2)c2ccccc2n1CC(=O)O` [Example 275, 2-(3-(1-(2,4-difluorobenzyl)-6-oxo-1,6-dihydropyridin-3-yl)-2-methyl-1H-indol-1-yl)acetic acid] was 30 nM; that for `Cc1c(-c2ccc(=O)n(C(C)C)c2)c2ccccc2n1CC(=O)O` [Example 276, 2-(3-(1-isopropyl-6-oxo-1,6-dihydropyridin-3-yl)-2-methyl-1H-indol-1-yl)-acetic acid] was 577 nM.
On to `Cc1c(-c2ccc(OC(C)C)nc2)c2cc(F)ccc2n1CC(=O)O` [Example 277], for which the half-maximal inhibitory concentration (IC50) was 71 nM.
To `Cc1c(-c2ccc(=O)n(C(C)C)c2)c2cc(Cl)ccc2n1CC(=O)O` [Example 278, 2-(5-chloro-3-(1-isopropyl-6-oxo-1,6-dihydropyridin-3-yl)-2-methyl-1H-indol-1-yl)acetic acid] belongs 198 nM; to `Cc1c(-c2ccc(=O)n(CC(F)(F)F)c2)c2ccccc2n1CC(=O)O` [Example 279, 2-(2-methyl-3-(6-oxo-1-(2,2,2-trifluoroethyl)-1,6-dihydropyridin-3-yl)-1H-indol-1-yl)acetic acid], 715 nM; to `Cc1c(-c2ccc(=O)n(CC(F)(F)F)c2)c2cc(F)ccc2n1CC(=O)O` [Example 280, 2-(5-Fluoro-2-methyl-3-(6-oxo-1-(2,2,2-trifluoroethyl)-1,6-dihydropyridin-3-yl)-1H-indol-1-yl)acetic acid], 117 nM.
To `Cc1c(-c2ccc(=O)n(CC(F)(F)F)c2)c2cc(Cl)ccc2n1CC(=O)O` [Example 281, 2-(5-chloro-2-methyl-3-(6-oxo-1-(2,2,2-trifluoroethyl)-1,6-dihydropyridin-3-yl)-1H-indol-1-yl)acetic acid] belongs 240 nM.
Compound `Cc1c(-c2ccc(=O)n(Cc3ccccc3F)c2)c2ccccc2n1CC(=O)O` [Example 282, 2-(3-(1-(2-fluorobenzyl)-6-oxo-1,6-dihydropyridin-3-yl)-2-methyl-1H-indol-1-yl)acetic acid] came in with a half-maximal inhibitory concentration (IC50) of 11 nM.
Compound `Cc1c(-c2ccc(=O)n(Cc3ccc(F)cc3)c2)c2ccccc2n1CC(=O)O` [Example 283, 2-(3-(1-(4-fluorobenzyl)-6-oxo-1,6-dihydropyridin-3-yl)-2-methyl-1H-indol-1-yl)acetic acid] yielded an IC50 of 16 nM.
Compound `Cc1c(-c2ccc(=O)n(Cc3cccc(F)c3F)c2)c2ccccc2n1CC(=O)O` [Example 284, 2-(3-(1-(2,3-difluorobenzyl)-6-oxo-1,6-dihydropyridin-3-yl)-2-methyl-1H-indol-1-yl)acetic acid] gave an IC50 of 15 nM.
Compound `Cc1c(-c2ccc(=O)n(Cc3c(F)cccc3F)c2)c2ccccc2n1CC(=O)O` [Example 285, 2-(3-(1-(2,6-difluorobenzyl)-6-oxo-1,6-dihydropyridin-3-yl)-2-methyl-1H-indol-1-yl)acetic acid] returned a concentration for half-maximal inhibition (IC50) of 23 nM.
The value for `Cc1c(-c2ccc(=O)n(Cc3cc(F)c(F)cc3F)c2)c2ccccc2n1CC(=O)O` [Example 286, 2-(2-methyl-3-(6-oxo-1-(2,4,5-trifluorobenzyl)-1,6-dihydropyridin-3-yl)-1H-indol-1-yl)acetic acid] was 11 nM.
